{"source": "patent US4613355A", "about": "“Antibiotic having herbicidal activity” (Satoshi Omura, priority 1983, dated 1986)", "assay_type_in_all_cases": "in vivo", "parameters_in_all_cases": "key: 0 indicates no effect; 5 indicates complete kill", "key": {"Miscanthus sinensis": {"tested_on": "Miscanthus sinensis", "test": "Foliage treatment (Example 8)", "details": "Plant No. 5 Miscanthus sinensis", "protocol": "(§1) Aqueous solutions of Phosalacine (Na salt) at different concentrations were applied at a rate of 1500 liters per hectare to naturally occurring plants or plants which were cultured on plates as shown in the following Table at certain stages of growth. […]"}, "Glycine max": {"tested_on": "Glycine max", "test": "Foliage treatment (Example 8)", "details": "Plant No. 34 Glycine max", "protocol": "as §1"}, "Arctium lappa": {"tested_on": "Arctium lappa", "test": "Foliage treatment (Example 8)", "details": "Plant No. 30 Arctium lappa, 14 days", "protocol": "as §1"}, "Brassica oleracea": {"tested_on": "Brassica oleracea", "test": "Foliage treatment (Example 8)", "details": "Plant No. 28 Brassica oleracea", "protocol": "as §1"}, "Cucumis sativus": {"tested_on": "Cucumis sativus", "test": "Foliage treatment (Example 8)", "details": "Plant No. 33 Cucumis sativus", "protocol": "as §1"}, "Oxalis corniculata": {"tested_on": "Oxalis corniculata", "test": "Foliage treatment (Example 8)", "details": "Plant No. 35 Oxalis corniculata", "protocol": "as §1"}, "Euphonia supina": {"tested_on": "Euphonia supina", "test": "Foliage treatment (Example 8)", "details": "Plant No. 36 Euphonia supina", "protocol": "as §1"}, "Allium fistulosum": {"tested_on": "Allium fistulosum", "test": "Foliage treatment (Example 8)", "details": "Plant No. 27 Allium fistulosum", "protocol": "as §1"}, "Artemisia princeps": {"tested_on": "Artemisia princeps", "test": "Foliage treatment (Example 8)", "details": "Plant No. 1 Artemisia princeps", "protocol": "as §1"}, "[1]": {"tested_on": "Eleucine indica var. carocana", "test": "Foliage treatment (Example 8)", "details": "Plant No. 24 Eleucine indica var. carocana", "protocol": "as §1"}, "Larix leptolepis": {"tested_on": "Larix leptolepis", "test": "Foliage treatment of woody plants (Example 10)", "details": "Plant No. 23 Larix leptolepis", "excerpt": "(§2) Aqueous solutions containing Phosalacine (Na salt) at different concentrations and 0.1% of octylphenylpolyoxy ethanol as surfactant were applied at a rate of 1500 liter per hectare to woody plants of about 60-70 cm in height. 7 and 14 days after the foliage treatment, damage to the plants was visually assessed on a scale of from 0 to 5 (cf. Example 7)."}, "Castanea crenata": {"tested_on": "Castanea crenata", "test": "Foliage treatment of woody plants (Example 10)", "details": "Plant No. 8 Castanea crenata", "excerpt": "as §2"}, "Picea densiflora": {"tested_on": "Picea densiflora", "test": "Foliage treatment of woody plants (Example 10)", "details": "Plant No. 22 Picea densiflora", "excerpt": "as §2"}, "Rubus palmatus": {"tested_on": "Rubus palmatus", "test": "Foliage treatment of naturally growing weeds and brush (Example 9)", "details": "Plant No. 18 Rubus palmatus, One month", "excerpt": "(§3) Aqueous solutions of Phosalacine (Na salt) at different concentrations and 0.1% of octylphenylpolyoxy ethanol as surfactant were applied to the area where various weeds and brush were naturally growing at a rate of 1500 liter per hectare. One month after the foliage treatment, damage to weeds and brush was visually assessed on a scale of from 0 to 5 where 0 indicates no effect and 5 indicates complete kill as hereinbefore defined."}, "Viburnum dilatatum": {"tested_on": "Viburnum dilatatum", "test": "Foliage treatment of naturally growing weeds and brush (Example 9)", "details": "Plant No. 21 Viburnum dilatatum, One month", "excerpt": "as §3"}, "Zanthoxylum piperitum": {"tested_on": "Zanthoxylum piperitum", "test": "Foliage treatment of naturally growing weeds and brush (Example 9)", "details": "Plant No. 19 Zanthoxylum piperitum, One month", "excerpt": "as §3"}, "[2]": {"tested_on": "various weeds and brush (overall evaluation)", "test": "Foliage treatment of naturally growing weeds and brush (Example 9)", "details": "OE overall evaluation, One month", "excerpt": "as §3"}, "Smilax china": {"tested_on": "Smilax china", "test": "Foliage treatment of naturally growing weeds and brush (Example 9)", "details": "Plant No. 17 Smilax china, One month", "excerpt": "as §3"}, "Pteridium aquilinum": {"tested_on": "Pteridium aquilinum", "test": "Foliage treatment of naturally growing weeds and brush (Example 9)", "details": "Plant No. 20 Pteridium aquilinum, One month", "excerpt": "as §3"}}, "data": [{"smiles": "C[C@H](NC(=O)[C@H](C)NC(=O)[C@@H](N)CCP(C)(=O)[O-])C(=O)O.[Na+]", "note": "[SF, reference compound]", "values": [{"measurement": "damage to the plants, scale 0 to 5", "setting": "Miscanthus sinensis; 0.1%, 7 days", "result": 3}, {"measurement": "damage to the plants, scale 0 to 5", "setting": "Miscanthus sinensis; 0.1%, 14 days", "result": 4}, {"measurement": "damage to the plants, scale 0 to 5", "setting": "Miscanthus sinensis; 0.2%, 7 days", "result": 4}, {"measurement": "damage to the plants, scale 0 to 5", "setting": "Miscanthus sinensis; 0.2%, 14 days", "result": 5}, {"measurement": "damage to the plants, scale 0 to 5", "setting": "Glycine max; 0.1%, 7 days", "result": 3}, {"measurement": "damage to the plants, scale 0 to 5", "setting": "Glycine max; 0.1%, 14 days", "result": 4}, {"measurement": "damage to the plants, scale 0 to 5", "setting": "Glycine max; 0.2%, 7 days", "result": 4}, {"measurement": "damage to the plants, scale 0 to 5", "setting": "Glycine max; 0.2%, 14 days", "result": 5}, {"measurement": "damage to the plants, scale 0 to 5", "setting": "Arctium lappa; 0.1%", "result": 4}, {"measurement": "damage to the plants, scale 0 to 5", "setting": "Arctium lappa; 0.2%", "result": 5}, {"measurement": "damage to the plants, scale 0 to 5", "setting": "Brassica oleracea; 0.1%, 7 days", "result": 3}, {"measurement": "damage to the plants, scale 0 to 5", "setting": "Brassica oleracea; 0.1%, 14 days", "result": 4}, {"measurement": "damage to the plants, scale 0 to 5", "setting": "Brassica oleracea; 0.2%, 7 days", "result": 4}, {"measurement": "damage to the plants, scale 0 to 5", "setting": "Brassica oleracea; 0.2%, 14 days", "result": 5}, {"measurement": "damage to the plants, scale 0 to 5", "setting": "Cucumis sativus; 0.1%, 7 days", "result": 3}, {"measurement": "damage to the plants, scale 0 to 5", "setting": "Cucumis sativus; 0.1%, 14 days", "result": 4}, {"measurement": "damage to the plants, scale 0 to 5", "setting": "Cucumis sativus; 0.2%, 7 days", "result": 4}, {"measurement": "damage to the plants, scale 0 to 5", "setting": "Cucumis sativus; 0.2%, 14 days", "result": 5}, {"measurement": "damage to the plants, scale 0 to 5", "setting": "Oxalis corniculata; 0.1%, 7 days", "result": 3}, {"measurement": "damage to the plants, scale 0 to 5", "setting": "Oxalis corniculata; 0.1%, 14 days", "result": 4}, {"measurement": "damage to the plants, scale 0 to 5", "setting": "Oxalis corniculata; 0.2%, 7 days", "result": 4}, {"measurement": "damage to the plants, scale 0 to 5", "setting": "Oxalis corniculata; 0.2%, 14 days", "result": 5}, {"measurement": "damage to the plants, scale 0 to 5", "setting": "Euphonia supina; 0.1%, 7 days", "result": 3}, {"measurement": "damage to the plants, scale 0 to 5", "setting": "Euphonia supina; 0.1%, 14 days", "result": 4}, {"measurement": "damage to the plants, scale 0 to 5", "setting": "Euphonia supina; 0.2%, 7 days", "result": 4}, {"measurement": "damage to the plants, scale 0 to 5", "setting": "Euphonia supina; 0.2%, 14 days", "result": 5}, {"measurement": "damage to the plants, scale 0 to 5", "setting": "Allium fistulosum; 0.1%, 7 days", "result": 3}, {"measurement": "damage to the plants, scale 0 to 5", "setting": "Allium fistulosum; 0.1%, 14 days", "result": 4}, {"measurement": "damage to the plants, scale 0 to 5", "setting": "Allium fistulosum; 0.2%, 7 days", "result": 5}, {"measurement": "damage to the plants, scale 0 to 5", "setting": "Allium fistulosum; 0.2%, 14 days", "result": 5}, {"measurement": "damage to the plants, scale 0 to 5", "setting": "Artemisia princeps; 0.1%, 7 days", "result": 3}, {"measurement": "damage to the plants, scale 0 to 5", "setting": "Artemisia princeps; 0.1%, 14 days", "result": 4}, {"measurement": "damage to the plants, scale 0 to 5", "setting": "Artemisia princeps; 0.2%, 7 days", "result": 4}, {"measurement": "damage to the plants, scale 0 to 5", "setting": "Artemisia princeps; 0.2%, 14 days", "result": 5}, {"measurement": "damage to the plants, scale 0 to 5", "setting": "[1]; 0.1%, 7 days", "result": 3}, {"measurement": "damage to the plants, scale 0 to 5", "setting": "[1]; 0.1%, 14 days", "result": 4}, {"measurement": "damage to the plants, scale 0 to 5", "setting": "[1]; 0.2%, 7 days", "result": 4}, {"measurement": "damage to the plants, scale 0 to 5", "setting": "[1]; 0.2%, 14 days", "result": 5}, {"measurement": "damage to the plants, scale 0 to 5", "setting": "Larix leptolepis; 0.125%, 7 days", "result": 4}, {"measurement": "damage to the plants, scale 0 to 5", "setting": "Larix leptolepis; 0.125%, 14 days", "result": 5}, {"measurement": "damage to the plants, scale 0 to 5", "setting": "Larix leptolepis; 0.25%, 7 days", "result": 4}, {"measurement": "damage to the plants, scale 0 to 5", "setting": "Larix leptolepis; 0.25%, 14 days", "result": 5}, {"measurement": "damage to the plants, scale 0 to 5", "setting": "Larix leptolepis; 0.5%, 7 days", "result": 4}, {"measurement": "damage to the plants, scale 0 to 5", "setting": "Larix leptolepis; 0.5%, 14 days", "result": 5}, {"measurement": "damage to the plants, scale 0 to 5", "setting": "Castanea crenata; 0.125%, 7 days", "result": 5}, {"measurement": "damage to the plants, scale 0 to 5", "setting": "Castanea crenata; 0.125%, 14 days", "result": 5}, {"measurement": "damage to the plants, scale 0 to 5", "setting": "Castanea crenata; 0.25%, 7 days", "result": 5}, {"measurement": "damage to the plants, scale 0 to 5", "setting": "Castanea crenata; 0.25%, 14 days", "result": 5}, {"measurement": "damage to the plants, scale 0 to 5", "setting": "Castanea crenata; 0.5%, 7 days", "result": 5}, {"measurement": "damage to the plants, scale 0 to 5", "setting": "Castanea crenata; 0.5%, 14 days", "result": 5}, {"measurement": "damage to the plants, scale 0 to 5", "setting": "Picea densiflora; 0.125%, 7 days", "result": 4}, {"measurement": "damage to the plants, scale 0 to 5", "setting": "Picea densiflora; 0.125%, 14 days", "result": 5}, {"measurement": "damage to the plants, scale 0 to 5", "setting": "Picea densiflora; 0.25%, 7 days", "result": 4}, {"measurement": "damage to the plants, scale 0 to 5", "setting": "Picea densiflora; 0.25%, 14 days", "result": 5}, {"measurement": "damage to the plants, scale 0 to 5", "setting": "Picea densiflora; 0.5%, 7 days", "result": 4}, {"measurement": "damage to the plants, scale 0 to 5", "setting": "Picea densiflora; 0.5%, 14 days", "result": 5}, {"measurement": "damage to weeds and brush, scale 0 to 5", "setting": "Rubus palmatus; 0.05%", "result": 2}, {"measurement": "damage to weeds and brush, scale 0 to 5", "setting": "Rubus palmatus; 0.1%", "result": 4}, {"measurement": "damage to weeds and brush, scale 0 to 5", "setting": "Rubus palmatus; 0.2%", "result": 5}, {"measurement": "damage to weeds and brush, scale 0 to 5", "setting": "Viburnum dilatatum; 0.05%", "result": 2}, {"measurement": "damage to weeds and brush, scale 0 to 5", "setting": "Viburnum dilatatum; 0.1%", "result": 4}, {"measurement": "damage to weeds and brush, scale 0 to 5", "setting": "Viburnum dilatatum; 0.2%", "result": 5}, {"measurement": "damage to weeds and brush, scale 0 to 5", "setting": "Zanthoxylum piperitum; 0.05%", "result": 2}, {"measurement": "damage to weeds and brush, scale 0 to 5", "setting": "Zanthoxylum piperitum; 0.1%", "result": 4}, {"measurement": "damage to weeds and brush, scale 0 to 5", "setting": "Zanthoxylum piperitum; 0.2%", "result": 5}, {"measurement": "damage to weeds and brush, scale 0 to 5", "setting": "[2]; 0.05%", "result": 2}, {"measurement": "damage to weeds and brush, scale 0 to 5", "setting": "[2]; 0.1%", "result": 4}, {"measurement": "damage to weeds and brush, scale 0 to 5", "setting": "[2]; 0.2%", "result": 5}, {"measurement": "damage to weeds and brush, scale 0 to 5", "setting": "Smilax china; 0.05%", "result": 2}, {"measurement": "damage to weeds and brush, scale 0 to 5", "setting": "Smilax china; 0.1%", "result": 4}, {"measurement": "damage to weeds and brush, scale 0 to 5", "setting": "Smilax china; 0.2%", "result": 5}, {"measurement": "damage to weeds and brush, scale 0 to 5", "setting": "Pteridium aquilinum; 0.05%", "result": 2}, {"measurement": "damage to weeds and brush, scale 0 to 5", "setting": "Pteridium aquilinum; 0.1%", "result": 4}, {"measurement": "damage to weeds and brush, scale 0 to 5", "setting": "Pteridium aquilinum; 0.2%", "result": 5}]}]}
